Values of other authors in US20170027865A1, “Dry Pharmaceutical Compositions for Topical Delivery of Oral Medications, Nasal Delivery and to Treat Ear Disorders” (CMPD LICENSING LLC, priority 2013, published 2017).

Tests used:
Citrobacter diversus = conditions: Gram: neg
Campylobacter jejuni = conditions: Gram: neg
Citrobacter freundii = conditions: Gram: neg
Pseudomonas aeruginosa = conditions: Gram: neg
Proteus vulgaris = conditions: Gram: neg
Serratia marcescens = conditions: Gram: neg
[1] = system: Methicillin Resistant Staph aureus (MRSA); conditions: Gram: pos
Rickettsiae = conditions: Rickettsiae; Gram: neg
[2] = system: Haemophilus parainfluenzae; conditions: Gram: neg
Chlamydia pneumoniae = conditions: Gram: n/a
Providencia stuartii = conditions: Gram: neg
Morganella morganii = conditions: Gram: neg
Providencia rettgeri = conditions: Gram: neg
Moraxella catarrhalis = conditions: Gram: neg
Vibrio cholerae = conditions: Gram: neg
Francisella tularensis = conditions: Francisella tularensis; Gram: neg
Yersinia pestis = conditions: Yersinia pestis; Gram: neg
Proteus mirabilis = conditions: Gram: neg
Shigella flexneri = conditions: Gram: neg
[3] = system: Staphylococcus epidermidis; conditions: Gram: pos
Pseudomonas fluorescens = conditions: Gram: neg
Legionella pneumophila = conditions: Legionella pneumophila; Gram: neg
Neisseria gonorrhoeae = conditions: Gram: neg
Salmonella typhi = conditions: Gram: neg
Klebsiella oxytoca = conditions: Gram: neg
Enterobacter aerogenes = conditions: Gram: neg
Bacteroides fragilis = conditions: Gram: anaer
Bartonella bacilliformis = conditions: Gram: neg
Corynebacterium jeikeium = conditions: Gram: pos
Neisseria meningitidis = conditions: Gram: neg
Shigella sonnei = conditions: Gram: neg
Shigella boydii = conditions: Gram: neg
Enterococcus faecium = conditions: Gram: pos
Haemophilus influenzae = conditions: Gram: neg
Shigella dysenteriae = conditions: Gram: neg
Klebsiella pneumoniae = conditions: Gram: neg
Escherichia coli = conditions: Gram: neg
[4] = system: Corynebacterium urealyticum; conditions: Gram: pos
[5] = system: Acinetobacter calcoaceticus; conditions: Gram: neg
[6] = system: Klebsiella (Calymmatobacterium) granulomatis; conditions: Gram: neg
Enterobacter cloacae = conditions: Gram: neg
Acinetobacter baumannii = conditions: Gram: neg
Enterobacter sakazakii = conditions: Gram: neg
Clostridium perfringens = conditions: Clostridium perfringens; Gram: anaer
Bordetella pertussis = conditions: Gram: neg
Brucella species = conditions: Brucella species; Gram: neg
Haemophilus ducreyi = conditions: Gram: neg
Streptococcus pyogenes = conditions: Gram: pos
Acinetobacter lwoffii = conditions: Gram: neg
[7] = system: Staphylococcus aureus (MSSA); conditions: Gram: pos
Streptococcus pneumoniae = conditions: Gram: pos
Chlamydia psittaci = conditions: Chlamydia psittaci; Gram: n/a
Chlamydia trachomatis = conditions: Gram: n/a
Mycoplasma pneumoniae = conditions: Gram: n/a
Peptostreptococcus = conditions: Gram: pos
[8] = system: Viridans group streptococci; conditions: Gram: pos
Enterococcus faecalis = conditions: Gram: pos
Clostridium difficile = conditions: Gram: anaer
Diphtheroids = conditions: Gram: pos
Streptococcus agalactiae = conditions: Gram: pos

Structure (SMILES): O=C(O)c1cn(C2CC2)c2cc(N3CCNCC3)c(F)cc2c1=O [Ciprofloxacin, ciprofloxacin]
- Expected coverage (Citrobacter diversus): yes
- Expected coverage (Campylobacter jejuni): yes
- Expected coverage (Citrobacter freundii): yes
- Expected coverage (Pseudomonas aeruginosa): yes
- Expected coverage (Proteus vulgaris): yes
- Expected coverage (Serratia marcescens): yes
- Expected coverage [1]: no
- Expected coverage (Rickettsiae): yes
- Expected coverage [2]: yes
- Expected coverage (Chlamydia pneumoniae): yes
- Expected coverage (Providencia stuartii): yes
- Expected coverage (Morganella morganii): yes
- Expected coverage (Providencia rettgeri): yes
- Expected coverage (Moraxella catarrhalis): yes
- Expected coverage (Vibrio cholerae): yes
- Expected coverage (Francisella tularensis): yes
- Expected coverage (Yersinia pestis): yes
- Expected coverage (Proteus mirabilis): yes
- Expected coverage (Shigella flexneri): yes
- Expected coverage [3]: yes
- Expected coverage (Pseudomonas fluorescens): yes
- Expected coverage (Legionella pneumophila): yes
- Expected coverage (Neisseria gonorrhoeae): yes
- Expected coverage (Salmonella typhi): yes
- Expected coverage (Klebsiella oxytoca): yes
- Expected coverage (Enterobacter aerogenes): yes
- Expected coverage (Bacteroides fragilis): no
- Expected coverage (Bartonella bacilliformis): yes
- Expected coverage (Corynebacterium jeikeium): no
- Expected coverage (Neisseria meningitidis): yes
- Expected coverage (Shigella sonnei): yes
- Expected coverage (Shigella boydii): yes
- Expected coverage (Enterococcus faecium): no
- Expected coverage (Haemophilus influenzae): yes
- Expected coverage (Shigella dysenteriae): yes
- Expected coverage (Klebsiella pneumoniae): yes
- Expected coverage (Escherichia coli): yes

Structure (SMILES): C/C(=C\C(=O)OCCCCCCCCC(=O)O)C[C@@H]1OC[C@H](C[C@@H]2O[C@H]2[C@@H](C)[C@H](C)O)[C@@H](O)[C@H]1O [Bactroban]
- Expected coverage (Citrobacter diversus): no
- Expected coverage [4]: no
- Expected coverage (Campylobacter jejuni): no
- Expected coverage (Citrobacter freundii): no
- Expected coverage (Pseudomonas aeruginosa): no
- Expected coverage (Proteus vulgaris): no
- Expected coverage (Serratia marcescens): no
- Expected coverage [5]: no
- Expected coverage [6]: no
- Expected coverage (Enterobacter cloacae): no
- Expected coverage [1]: yes
- Expected coverage (Rickettsiae): no
- Expected coverage (Providencia stuartii): no
- Expected coverage (Morganella morganii): no
- Expected coverage (Providencia rettgeri): no
- Expected coverage (Moraxella catarrhalis): no
- Expected coverage (Vibrio cholerae): no
- Expected coverage (Francisella tularensis): no
- Expected coverage (Yersinia pestis): no
- Expected coverage (Acinetobacter baumannii): no
- Expected coverage (Proteus mirabilis): no
- Expected coverage (Enterobacter sakazakii): no
- Expected coverage (Shigella flexneri): no
- Expected coverage (Clostridium perfringens): no
- Expected coverage (Bordetella pertussis): no
- Expected coverage (Pseudomonas fluorescens): no
- Expected coverage (Legionella pneumophila): no
- Expected coverage (Neisseria gonorrhoeae): no
- Expected coverage (Salmonella typhi): no
- Expected coverage (Klebsiella oxytoca): no
- Expected coverage (Enterobacter aerogenes): no
- Expected coverage (Bartonella bacilliformis): no
- Expected coverage (Brucella species): no
- Expected coverage (Corynebacterium jeikeium): no
- Expected coverage (Haemophilus ducreyi): no
- Expected coverage (Neisseria meningitidis): no
- Expected coverage (Streptococcus pyogenes): yes
- Expected coverage (Shigella sonnei): no
- Expected coverage (Shigella boydii): no
- Expected coverage (Haemophilus influenzae): no
- Expected coverage (Shigella dysenteriae): no
- Expected coverage (Klebsiella pneumoniae): no
- Expected coverage (Acinetobacter lwoffii): no
- Expected coverage [7]: yes
- Expected coverage (Escherichia coli): no

Structure (SMILES): CO/N=C(\C(=O)N[C@@H]1C(=O)N2C(C(=O)O)=C(CSc3nc(=O)c(=O)[nH]n3C)CS[C@H]12)c1csc(N)n1 [Ceftriaxone, ceftriaxone]
- Expected coverage (Citrobacter diversus): yes
- Expected coverage [4]: no
- Expected coverage (Campylobacter jejuni): no
- Expected coverage (Citrobacter freundii): yes
- Expected coverage (Pseudomonas aeruginosa): no
- Expected coverage (Proteus vulgaris): yes
- Expected coverage (Serratia marcescens): yes
- Expected coverage [5]: no
- Expected coverage (Streptococcus pneumoniae): yes
- Expected coverage [6]: yes
- Expected coverage (Chlamydia psittaci): no
- Expected coverage (Enterobacter cloacae): yes
- Expected coverage [1]: no
- Expected coverage (Chlamydia trachomatis): no
- Expected coverage (Mycoplasma pneumoniae): no
- Expected coverage (Peptostreptococcus): yes
- Expected coverage (Rickettsiae): no
- Expected coverage [8]: yes
- Expected coverage (Enterococcus faecalis): no
- Expected coverage [2]: yes
- Expected coverage (Chlamydia pneumoniae): no
- Expected coverage (Clostridium difficile): no
- Expected coverage (Diphtheroids): no
- Expected coverage (Providencia stuartii): yes
- Expected coverage (Morganella morganii): yes
- Expected coverage (Providencia rettgeri): yes
- Expected coverage (Moraxella catarrhalis): yes
- Expected coverage (Vibrio cholerae): no
- Expected coverage (Francisella tularensis): no
- Expected coverage (Yersinia pestis): no
- Expected coverage (Acinetobacter baumannii): no
- Expected coverage (Proteus mirabilis): yes
- Expected coverage (Enterobacter sakazakii): yes
- Expected coverage (Shigella flexneri): yes
- Expected coverage (Clostridium perfringens): yes
- Expected coverage (Bordetella pertussis): no
- Expected coverage [3]: yes
- Expected coverage (Legionella pneumophila): no
- Expected coverage (Streptococcus agalactiae): yes
- Expected coverage (Neisseria gonorrhoeae): yes
- Expected coverage (Salmonella typhi): yes
- Expected coverage (Klebsiella oxytoca): yes
- Expected coverage (Enterobacter aerogenes): yes
- Expected coverage (Bacteroides fragilis): yes
- Expected coverage (Corynebacterium jeikeium): no
- Expected coverage (Haemophilus ducreyi): yes
- Expected coverage (Neisseria meningitidis): yes
- Expected coverage (Streptococcus pyogenes): yes
- Expected coverage (Shigella sonnei): yes
- Expected coverage (Shigella boydii): yes
- Expected coverage (Enterococcus faecium): no
- Expected coverage (Haemophilus influenzae): yes
- Expected coverage (Shigella dysenteriae): yes
- Expected coverage (Klebsiella pneumoniae): yes
- Expected coverage (Acinetobacter lwoffii): no
- Expected coverage [7]: yes
- Expected coverage (Escherichia coli): yes
